Laboratory results published in patent US20160287534A1, “METHODS FOR REVERSING FIBROSIS” (The University of Connecticut, priority 2015, published 2016).

What was measured:
LX-2 cells [1] = experiment: Cytotoxicity test (Cell Counting Kit-8); format: cell-based; settings: ASTX up to 25 μM, 24 h (FIG. 1A)
Experimental: LX-2 cells were incubated with 0-200 μM ASTX for 24 h and its cytotoxicity was measured using a Cell Counting Kit-8 (Dojindo Inc., Rockville, Md.) as previously described (see Yang et al. Food Chem. Toxicol. 2011, vol. 49, pp. 1560-1564). Positive control (0.5 mM SDS) was run in parallel.

[2] = system: HSCs from wild-type and Nrf2−/− mice; experiment: qRT-PCR of HSCs from wild-type and Nrf2−/− mice; format: cell-based, mouse
Experimental: Mouse primary HSCs were isolated from C57BL/6J, nuclear erythroid 2-related factor 2 (NRF2) knockout (Nrf2−/−), and wild-type mice using a pronase/collagenase digestion method as described herein Example 1. The cells were then cultured on untreated petri dishes (BD Falcon, Franklin Lakes, N.J.), and maintained in a low-glucose DMEM medium supplemented with 10% FBS, 4 mM L-glutamine, and P/S (100 U/100 μg per mL). Human primary HSCs (Zen-Bio, Research Triangle Park, N.C.) were maintained in a low-glucose DMEM medium containing 2% FBS, 4 mM L-glutamine, 1× nonessential amino acids, 1× vitamins, and P/S (100 U/100 μg per mL). The cells were seeded on a collagen-coated plate for experiments (Sarstedt, Newton, N.C.). LX-2 cells, kindly provided by Dr. Scott Friedman at the Icahn School of Medicine at Mount Sinai (New York, N.Y.), were maintained in a low-glucose DMEM supplemented with 2% FBS, 4 mM L-glutamine, and P/S (100 U/100 μg per mL). All cells were cultured in a 37° C. humidified cell culture chamber with 5% CO2. Cell culture supplies were purchased from HyClone unless stated otherwise (Thermo Scientific, Logan, Utah).
(§1) ASTX, provided by Fuji Chemical Industry Co., Ltd. (Toyama, Japan), was prepared in DMSO as described herein in Example 1. After plated on an uncoated dish, mouse qHSCs were incubated with 25 μM ASTX during activation. aHSCs, which were prepared by culturing qHSCs on an uncoated dish for 6 d, were incubated with 25 μM ASTX for 2 or 4 more days. Also, cells were incubated with 3 μM tert-butyl hydrogen peroxide (tBHP, Thermo Scientific) for 12 h with or without 25 μM ASTX. Medium containing ASTX was replenished daily and DMSO vehicle control was always run in parallel. Human primary HSC were treated with 25 μM ASTX for 24 h, after which they were activated by 3 ng/mL of TGFβ1 (Peprotech, Rocky Hill, N.J.) for 24 h.
(§2) Total RNA extraction, cDNA synthesis, and qRT-PCR were conducted using a Bio-Rad CFX96 Real-Time system (Bio-Rad, Hercules, Calif.) as previously described (Id.). Primer sequences will be available upon request.

LX-2 cells [3] = experiment: qRT-PCR of LX-2 cells transfected with scramble control or Smad3 siRNA; format: cell-based
Experimental: Total RNA extraction, cDNA synthesis, and qRT-PCR were conducted using a Bio-Rad CFX96 Real-Time system (Bio-Rad, Hercules, Calif.) as previously described (see Park et al. Nutr. Res. 2008, vol. 28, pp. 83-91; Rasmussen et al. J. Nutr. 2008, vol. 138, pp. 476-481). Gene sequences were obtained from the GenBank database and primers were designed using Beacon Designer (Premier Biosoft, Palo Alto, Calif.). Primer sequences are available (see supplemental table of Yang et al. Biochimica et Biophysica Acta 2015, vol. 1850, pp. 178-185).
LX-2 cells were transfected with either Silencer® Negative Control scrambled siRNA (Ambion, Invitrogen, Grand Island, N.Y.) or siGENOME SMARTpool SMAD3 siRNA (siGenome, Thermo Scientific, Logan, Utah) as described previously (see Angulo N. Engl. J. Med. 2002, vol. 346, pp. 1221-1231). Twenty four hours after the transfection, cells were pretreated with 25 μM ASTX for 12 h, after which they were stimulated by 2 ng/mL TGFβ1 for additional 12 h for subsequent qRT-PCR analysis.

aHSCs = experiment: Reversion of aHSCs to iHSCs: morphology, qRT-PCR, α-SMA protein; format: cell-based, mouse
Experimental: as §1, §2
Whole cell lysates and human tissue protein extracts were prepared and Western blot analysis were performed as described (Id.) using antibodies against α-SMA (Sigma, St. Louis, Mo.), HDAC3 (Santa Cruz Biotechnology, Santa Cruz, Calif.), HDAC4 (Santa Cruz Biotechnology), HDAC9 (Abcam, Cambridge, Mass.; Novus Biologicals, Littleton, Colo.), Col1A1 (Sigma). β-tubulin (Santa Cruz) or glyceraldehyde 3-phosphate dehydrogenase (GAPDH) (Santa Cruz) was used as a loading control.

mouse primary HSCs = experiment: ROS measurement in mouse primary HSCs; format: cell-based; settings: ASTX treatment for 6 d during activation (FIG. 8A)
Experimental: Mouse primary qHSCs were seeded on an uncoated black 24-well μ-Plate (Ibidi, Verona, Wis.). At day 6 of activation, cellular ROS levels were measured using dichlorofluorescin (Sigma-Aldrich, St. Louis, Mo.) as described (Id.). The cells were then fixed with 4% formaldehyde for 10 min, and incubated with 0.1% CellTag 700 stain (Li—COR, Lincoln, Nebr.), a fluorescent stain, for cell number normalization, for 1 h. Fluorescent signals were obtained by an Odyssey® CLx Infrared Imaging System (Li—COR) and a Li—COR Image Studio software. Data were expressed as relative fluorescent intensity divided by total cell stain signal.

## CC1=C(/C=C/C(C)=C/C=C/C(C)=C/C=C/C=C(C)/C=C/C=C(C)/C=C/C2=C(C)C(=O)C(O)CC2(C)C)C(C)(C)CC(O)C1=O (centres unmarked) [ASTX, astaxanthin]
LX-2 cells [1]
  cell viability: more than 90%
[2]; both wild-type and Nrf2−/− HSCs, activated 6 d with ASTX (FIG. 8C)
  α-SMA and Col1A1 mRNA: able to decrease
[2]; both wild-type and Nrf2−/− HSCs, tBHP at day 6 for 12 h (FIG. 8D)
  tBHP-increased α-SMA expression: attenuated
[2]; wild-type HSCs (FIG. 8D)
  NRF2 expression: significantly decreased
LX-2 cells [3]; LX-2 cells transfected with scrambled control, 25 μM ASTX 12 h (FIG. 4)
  induction of fibrogenic genes by TGFβ1: attenuated
LX-2 cells [3]; Smad3-deficient (siRNA) LX-2 cells
  expression of α-SMA: minimal inhibitory effect
LX-2 cells [3]; regardless of Smad3
  increase in TGFβ1 mRNA by TGFβ1 itself: inhibited
aHSCs; aHSCs treated with ASTX for 2 or 4 d (FIG. 9A)
  cell morphology (lipid droplets): reappearance of cytoplasmic lipid droplets
aHSCs; aHSCs treated with ASTX for 2 d (FIG. 9B)
  α-SMA and Col1A1 mRNA: significantly decreased
aHSCs; aHSCs, ASTX for 2 d (FIG. 9D)
  ADRP mRNA levels, control vs ASTX-treated: no significant difference
  LRAT mRNA: markedly increased
  SREBP1c mRNA levels: significantly decreased
aHSCs; aHSCs, day 8, ASTX for 2 d (FIG. 9C)
  α-SMA protein: significantly decreased
Mouse primary HSCs
  cellular ROS levels: significantly lowered
